Experimental data reported in ChEMBL document CHEMBL1201862, “PubChem BioAssay data set” (2004).
The source made the active and inactive calls.

How the values were obtained:
[1] = target: Voltage-dependent T-type calcium channel subunit alpha-1H (Homo sapiens, UniProt O95180); assay type: functional;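 also: channel activity triggered by adding a high calcium stimulation buffer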
[2] = cytotoxicity toward NIH3T3 fibroblasts, dose response, counter-screen, cell-based, ATP luminescence, mouse fibroblasts (AID 2010); assay type: functional;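 also: cells exposed to compound for about 90 hours before reading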
[3] = THP-1 cell cytotoxicity, dose response, cytotoxicity control for non-replicating M. tuberculosis project (AID 489025); assay type: functional
[4] = HepG2 cell cytotoxicity, dose response, cytotoxicity control for non-replicating M. tuberculosis project (AID 489018); assay type: functional; settings: Mycobacterium tuberculosis
cells [5] = assay type: functional
[6] = Vero E6 cell cytotoxicity, dose response, cytotoxicity control for non-replicating M. tuberculosis project, secondary assay (AID 492998); assay type: functional, VeroE6; settings: Vero C1008
[7] = inhibitors of intracellular T. cruzi replication, confirmation, NIH3T3 host cells, beta-gal luminescence (AID 2044); assay type: functional, cell-based;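 also: intracellular parasites grown in NIH/3T3 mouse fibroblasts as host cells; luminescent beta-galactosidase reporter signal from transgenic T. cruzi replicating inside host cells; inhibitors lower the luminescence signal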
Cytochrome P450 3A4 = Cytochrome P450 3A4 (Homo sapiens, UniProt P08684); settings: Potency;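 also: confirmatory qHTS run detecting inhibitors and substrates of CYP3A4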
[8] = growth suppression of beta-catenin-knockout colon cells, dose response, cell-based, HCT116, human colon tumor (AID 1045); assay type: functional;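 also: HCT116 colon tumor cells with beta catenin knocked out; cells exposed to compound for 60 hours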
[9] = target: T1, Microphthalmia-associated transcription factor (Homo sapiens, UniProt O75030); test: TRPM1 promoter luciferase signal decrease, dose response, MITF inhibitor project, cell-based, SK-MEL-5, cherry-picked, set 3 (AID 493073); assay type: functional
T1 sequence (O75030 whole entry): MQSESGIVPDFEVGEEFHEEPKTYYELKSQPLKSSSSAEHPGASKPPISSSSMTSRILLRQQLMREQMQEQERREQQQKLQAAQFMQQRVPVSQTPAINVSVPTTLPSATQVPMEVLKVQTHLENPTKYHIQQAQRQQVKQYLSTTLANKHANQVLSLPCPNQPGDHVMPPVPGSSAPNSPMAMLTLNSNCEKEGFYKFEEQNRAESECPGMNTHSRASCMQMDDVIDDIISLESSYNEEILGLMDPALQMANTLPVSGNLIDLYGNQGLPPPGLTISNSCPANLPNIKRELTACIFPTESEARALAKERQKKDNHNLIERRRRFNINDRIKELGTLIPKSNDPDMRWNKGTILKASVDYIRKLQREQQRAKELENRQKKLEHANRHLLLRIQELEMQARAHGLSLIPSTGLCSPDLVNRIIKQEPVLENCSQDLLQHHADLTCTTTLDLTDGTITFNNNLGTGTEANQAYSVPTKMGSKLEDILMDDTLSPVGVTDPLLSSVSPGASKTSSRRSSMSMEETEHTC

BJ [10] = test: cytotoxicity toward BJ-TERT fibroblasts, dose response, cell-based, RAS-independent, luminescence (AID 1933); assay type: functional; settings: Homo sapiens
BJ [11] = test: cytotoxicity toward BJ-TERT-LT-ST fibroblasts, dose response, cell-based, RAS-independent, luminescence (AID 1935); assay type: functional; settings: Homo sapiens;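 also: BJ fibroblasts immortalized with TERT plus LT and ST oncogenes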
[12] = control 3'UTR Renilla luciferase suppression, dose response, counter-screen for Shn3 inhibitor project, cell-based, Clone20-Shn3RL, cherry-picked (AID 624133); assay type: functional
BJ [13] = test: cells; assay type: functional, cell-based; settings: Homo sapiens
[14] = growth suppression of PTEN-null colon cells, dose response, cell-based, HCT116 PTEN knockout (AID 1047); assay type: functional;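 also: HCT116 colon tumor cells with PTEN knocked out; cells exposed to compound for 60 hours before readout; potency for loss of cell viability measured by luminescence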
[15] = cytotoxicity in HEK-293T cells, dose response, cytotoxicity control for BCR NF-kB inhibitor project, luminescence, B-cell screen hits (AID 489021); assay type: functional, cell-based;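 also: HEK-293T cells carrying an NF-kB luciferase reporter; cells exposed to compound for about 14 hours before viability readout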
[16] = cytotoxicity toward DRD oncogenic fibroblasts, dose response, cell-based, non-viral oncogenic, luminescence (AID 1934); assay type: functional; settings: Homo sapiens
[17] = Shn3 3'UTR reporter inhibitors, dose response, cell-based, Clone20 osteoblasts, firefly luciferase, cherry-picked (AID 624132); assay type: functional;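 also: firefly luciferase luminescence from reporter carrying the Shn3 3'UTR in osteoblasts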
[18] = HepG2 cell cytotoxicity, dose response, cytotoxicity control for Shn3 inhibitor project, CellTiter-Glo, cherry-picked (AID 624134); assay type: functional, cell-based
SUMO-activating enzyme [19] = target: T2, SUMO-activating enzyme (Homo sapiens, UniProt Q9UBT2); test: SUMOylation inhibitor hit validation, confirmation, SUMOylation inhibitor project, biochemical, AlphaScreen (AID 2018); assay type: functional
[20] = target: T3, Serine/threonine-protein phosphatase (Homo sapiens, UniProt Q9BPW0); test: Counterscreen for inhibitors of PP1: fluorescence-based biochemical high throughput dose response assay to identify inhibitors of Protein Phosphatase 5 (PP5). [Related pubchem assays: 2034 (Summary (PP5 inhibitors)), 1987 (PP5 inhibitors in singlate), 2235 (PP1 inhibitors in singlate)]
T3 sequence (Q9BPW0 whole entry): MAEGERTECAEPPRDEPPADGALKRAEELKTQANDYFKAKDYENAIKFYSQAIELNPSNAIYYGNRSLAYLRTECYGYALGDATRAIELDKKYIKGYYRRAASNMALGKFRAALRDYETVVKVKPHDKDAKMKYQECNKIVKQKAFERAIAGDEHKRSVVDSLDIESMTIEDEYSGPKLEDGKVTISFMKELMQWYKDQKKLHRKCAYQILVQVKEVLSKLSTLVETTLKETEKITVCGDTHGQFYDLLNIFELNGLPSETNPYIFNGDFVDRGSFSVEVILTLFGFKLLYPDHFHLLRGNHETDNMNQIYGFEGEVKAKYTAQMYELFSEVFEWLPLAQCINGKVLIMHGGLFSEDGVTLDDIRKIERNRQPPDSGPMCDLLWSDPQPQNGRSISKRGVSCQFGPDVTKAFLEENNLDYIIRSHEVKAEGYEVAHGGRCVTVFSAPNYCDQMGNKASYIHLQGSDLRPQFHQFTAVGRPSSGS

[21] = target: Polyadenylate-binding protein 1 (Homo sapiens, UniProt P11940); test: PABP poly(A) RNA binding inhibitors, primary screen, biochemical, fluorescence polarization, uHTS (AID 2014)
[22] = target: Serine/threonine-protein phosphatase PP1-alpha catalytic subunit (Homo sapiens, UniProt P62136); test: PP1 phosphatase inhibitors, dose response, biochemical, fluorescence (AID 2403);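 also: phosphatase turnover of OMFP into fluorescent 3-O-methylfluorescein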
[23] = target: Eukaryotic translation initiation factor 4H (Homo sapiens, UniProt Q15056); test: human eIF4H binding inhibitors, primary screen, translation initiation inhibitor project, biochemical, uHTS, fluorescence polarization (AID 2012)
SUMO-activating enzyme [24] = target: T2, SUMO-activating enzyme; test: inhibitors of in vitro SUMOylation cascade, primary screen, biochemical, HTRF, uHTS (AID 2006); assay type: protein-complex assay
Protein skinhead-1 = target: T4, Protein skinhead-1 (Caenorhabditis elegans, UniProt P34707); assay type: functional
T4 sequence (P34707 whole entry): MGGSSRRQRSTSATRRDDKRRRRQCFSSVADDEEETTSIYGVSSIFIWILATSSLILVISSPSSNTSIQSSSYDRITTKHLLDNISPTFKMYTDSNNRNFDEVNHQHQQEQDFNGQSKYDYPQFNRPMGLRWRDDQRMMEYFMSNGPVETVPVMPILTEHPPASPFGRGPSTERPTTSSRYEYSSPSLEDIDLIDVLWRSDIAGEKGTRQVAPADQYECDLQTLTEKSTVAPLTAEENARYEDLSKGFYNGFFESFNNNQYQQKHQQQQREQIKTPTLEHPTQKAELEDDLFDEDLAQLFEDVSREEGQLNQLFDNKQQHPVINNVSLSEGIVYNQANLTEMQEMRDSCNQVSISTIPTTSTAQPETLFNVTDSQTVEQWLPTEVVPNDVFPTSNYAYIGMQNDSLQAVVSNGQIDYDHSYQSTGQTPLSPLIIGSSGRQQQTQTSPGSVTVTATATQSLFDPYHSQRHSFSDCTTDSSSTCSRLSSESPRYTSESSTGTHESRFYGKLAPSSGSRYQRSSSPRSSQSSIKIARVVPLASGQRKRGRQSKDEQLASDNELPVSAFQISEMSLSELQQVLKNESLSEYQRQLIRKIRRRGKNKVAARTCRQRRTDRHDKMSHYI

[25] = microbe, parasite or virus in culture; assay type: functional; settings: Mycobacterium tuberculosis
Mucolipin-3 = target: T5, Mucolipin-3 (Homo sapiens, UniProt Q8TDD5); test: Fluorescence counterscreen assay for […] agonists: dose response cell-based high-throughput screening assay to identify agonists of the transient receptor potential channel ML3 (TRPML3). [Related pubchem assays: 1424, 1448 ]; assay type: functional
T5 sequence (Q8TDD5 whole entry): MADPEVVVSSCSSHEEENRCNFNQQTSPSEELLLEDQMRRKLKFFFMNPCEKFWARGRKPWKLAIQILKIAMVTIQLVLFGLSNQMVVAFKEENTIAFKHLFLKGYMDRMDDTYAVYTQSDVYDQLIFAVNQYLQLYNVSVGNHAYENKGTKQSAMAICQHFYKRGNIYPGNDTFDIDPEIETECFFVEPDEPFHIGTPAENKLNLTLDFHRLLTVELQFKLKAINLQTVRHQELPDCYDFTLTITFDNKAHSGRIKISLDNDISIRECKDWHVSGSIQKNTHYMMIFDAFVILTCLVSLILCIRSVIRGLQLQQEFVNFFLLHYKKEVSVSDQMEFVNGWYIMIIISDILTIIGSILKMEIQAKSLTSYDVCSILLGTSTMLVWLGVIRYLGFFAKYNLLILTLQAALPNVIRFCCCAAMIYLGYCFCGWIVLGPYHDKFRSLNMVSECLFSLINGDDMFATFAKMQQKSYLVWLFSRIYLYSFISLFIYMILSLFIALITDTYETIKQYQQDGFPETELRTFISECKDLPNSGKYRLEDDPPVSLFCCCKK

Ion channel NompC = Ion channel NompC (Danio rerio, UniProt Q7T1G6); test: Dose response cell-based high-throughput screening assay for agonists of the transient receptor potential channel N1 (TRPN1). [Related pubchem assays (depositor defined):AID1424, AID1448]; assay type: functional
cells [26] = assay type: functional, cell-based
cells [27] = assay type: functional, cell-based; remark: listed apart in the source
Nonstructural protein 1 = Nonstructural protein 1 (Influenza A virus, UniProt Q194T2); assay type: functional, Influenza A virus (A/California/07/2009(H1N1))
[28] = target: Alkaline phosphatase, placental type (Homo sapiens, UniProt P05187); test: PLAP enzyme inhibitors, confirmation, biochemical, luminescence (AID 1512); assay type: functional
[29] = target: T6, Alkaline phosphatase, tissue-nonspecific isozyme (Homo sapiens, UniProt P05186); test: human TNAP enzyme inhibitors, SAR follow-up, biochemical, luminescent, dose response (AID 1056)
T6 sequence (P05186 whole entry): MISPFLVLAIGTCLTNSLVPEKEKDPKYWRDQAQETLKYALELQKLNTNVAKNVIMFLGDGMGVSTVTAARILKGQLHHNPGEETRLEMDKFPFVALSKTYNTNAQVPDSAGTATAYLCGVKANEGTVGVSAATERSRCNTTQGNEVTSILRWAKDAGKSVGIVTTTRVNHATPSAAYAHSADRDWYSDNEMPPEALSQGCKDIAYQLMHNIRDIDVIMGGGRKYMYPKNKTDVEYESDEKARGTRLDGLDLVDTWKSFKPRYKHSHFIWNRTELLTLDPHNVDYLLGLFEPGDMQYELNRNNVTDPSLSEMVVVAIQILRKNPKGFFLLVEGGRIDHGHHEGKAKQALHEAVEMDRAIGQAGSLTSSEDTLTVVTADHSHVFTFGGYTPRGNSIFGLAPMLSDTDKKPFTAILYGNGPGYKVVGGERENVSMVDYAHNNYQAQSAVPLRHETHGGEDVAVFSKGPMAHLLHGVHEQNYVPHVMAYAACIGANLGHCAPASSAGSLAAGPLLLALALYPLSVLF

Chain of Cytochrome P450 3A4 (P08684 whole entry): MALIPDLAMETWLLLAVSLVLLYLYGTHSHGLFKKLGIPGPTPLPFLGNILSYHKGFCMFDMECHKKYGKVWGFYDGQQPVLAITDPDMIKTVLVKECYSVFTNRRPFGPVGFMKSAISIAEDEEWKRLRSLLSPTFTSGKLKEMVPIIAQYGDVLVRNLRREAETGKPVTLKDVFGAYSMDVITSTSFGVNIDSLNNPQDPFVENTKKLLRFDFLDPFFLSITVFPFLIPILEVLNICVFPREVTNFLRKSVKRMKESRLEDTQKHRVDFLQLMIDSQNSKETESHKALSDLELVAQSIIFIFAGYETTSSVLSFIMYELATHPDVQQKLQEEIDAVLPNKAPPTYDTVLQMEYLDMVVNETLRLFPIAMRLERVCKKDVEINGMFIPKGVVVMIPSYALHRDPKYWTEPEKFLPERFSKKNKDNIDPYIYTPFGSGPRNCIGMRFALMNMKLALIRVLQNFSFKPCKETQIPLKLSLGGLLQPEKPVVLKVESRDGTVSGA
T2 sequence (Q9UBE0 whole entry): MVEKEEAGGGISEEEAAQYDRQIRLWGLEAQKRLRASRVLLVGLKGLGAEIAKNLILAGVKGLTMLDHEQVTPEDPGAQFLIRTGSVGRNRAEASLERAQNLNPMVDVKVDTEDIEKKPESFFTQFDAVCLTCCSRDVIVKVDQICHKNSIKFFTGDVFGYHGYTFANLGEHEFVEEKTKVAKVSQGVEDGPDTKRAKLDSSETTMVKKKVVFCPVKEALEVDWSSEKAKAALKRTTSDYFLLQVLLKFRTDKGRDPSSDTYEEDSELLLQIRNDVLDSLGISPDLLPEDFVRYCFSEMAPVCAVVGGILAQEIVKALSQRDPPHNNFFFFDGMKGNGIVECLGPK
T2 sequence (Q9UBT2 whole entry): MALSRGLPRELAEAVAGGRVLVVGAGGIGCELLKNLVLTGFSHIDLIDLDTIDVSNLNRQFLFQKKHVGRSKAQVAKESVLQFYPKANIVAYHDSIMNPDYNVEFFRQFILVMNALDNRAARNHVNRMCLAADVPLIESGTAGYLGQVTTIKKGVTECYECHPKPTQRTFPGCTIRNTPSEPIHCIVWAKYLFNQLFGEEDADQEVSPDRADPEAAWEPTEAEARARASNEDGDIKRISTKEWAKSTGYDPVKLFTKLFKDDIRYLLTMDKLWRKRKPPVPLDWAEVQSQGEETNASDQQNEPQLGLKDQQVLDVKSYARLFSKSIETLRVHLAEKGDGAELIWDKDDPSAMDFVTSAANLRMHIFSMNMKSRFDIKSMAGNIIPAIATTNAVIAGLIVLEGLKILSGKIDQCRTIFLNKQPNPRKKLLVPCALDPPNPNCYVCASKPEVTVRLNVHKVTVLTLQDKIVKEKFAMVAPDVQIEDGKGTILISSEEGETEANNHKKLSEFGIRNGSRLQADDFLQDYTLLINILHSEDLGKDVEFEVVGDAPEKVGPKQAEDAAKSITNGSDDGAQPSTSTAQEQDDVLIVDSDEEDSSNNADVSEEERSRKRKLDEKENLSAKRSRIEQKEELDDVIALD
Chain of Ion channel NompC (Q7T1G6 whole entry): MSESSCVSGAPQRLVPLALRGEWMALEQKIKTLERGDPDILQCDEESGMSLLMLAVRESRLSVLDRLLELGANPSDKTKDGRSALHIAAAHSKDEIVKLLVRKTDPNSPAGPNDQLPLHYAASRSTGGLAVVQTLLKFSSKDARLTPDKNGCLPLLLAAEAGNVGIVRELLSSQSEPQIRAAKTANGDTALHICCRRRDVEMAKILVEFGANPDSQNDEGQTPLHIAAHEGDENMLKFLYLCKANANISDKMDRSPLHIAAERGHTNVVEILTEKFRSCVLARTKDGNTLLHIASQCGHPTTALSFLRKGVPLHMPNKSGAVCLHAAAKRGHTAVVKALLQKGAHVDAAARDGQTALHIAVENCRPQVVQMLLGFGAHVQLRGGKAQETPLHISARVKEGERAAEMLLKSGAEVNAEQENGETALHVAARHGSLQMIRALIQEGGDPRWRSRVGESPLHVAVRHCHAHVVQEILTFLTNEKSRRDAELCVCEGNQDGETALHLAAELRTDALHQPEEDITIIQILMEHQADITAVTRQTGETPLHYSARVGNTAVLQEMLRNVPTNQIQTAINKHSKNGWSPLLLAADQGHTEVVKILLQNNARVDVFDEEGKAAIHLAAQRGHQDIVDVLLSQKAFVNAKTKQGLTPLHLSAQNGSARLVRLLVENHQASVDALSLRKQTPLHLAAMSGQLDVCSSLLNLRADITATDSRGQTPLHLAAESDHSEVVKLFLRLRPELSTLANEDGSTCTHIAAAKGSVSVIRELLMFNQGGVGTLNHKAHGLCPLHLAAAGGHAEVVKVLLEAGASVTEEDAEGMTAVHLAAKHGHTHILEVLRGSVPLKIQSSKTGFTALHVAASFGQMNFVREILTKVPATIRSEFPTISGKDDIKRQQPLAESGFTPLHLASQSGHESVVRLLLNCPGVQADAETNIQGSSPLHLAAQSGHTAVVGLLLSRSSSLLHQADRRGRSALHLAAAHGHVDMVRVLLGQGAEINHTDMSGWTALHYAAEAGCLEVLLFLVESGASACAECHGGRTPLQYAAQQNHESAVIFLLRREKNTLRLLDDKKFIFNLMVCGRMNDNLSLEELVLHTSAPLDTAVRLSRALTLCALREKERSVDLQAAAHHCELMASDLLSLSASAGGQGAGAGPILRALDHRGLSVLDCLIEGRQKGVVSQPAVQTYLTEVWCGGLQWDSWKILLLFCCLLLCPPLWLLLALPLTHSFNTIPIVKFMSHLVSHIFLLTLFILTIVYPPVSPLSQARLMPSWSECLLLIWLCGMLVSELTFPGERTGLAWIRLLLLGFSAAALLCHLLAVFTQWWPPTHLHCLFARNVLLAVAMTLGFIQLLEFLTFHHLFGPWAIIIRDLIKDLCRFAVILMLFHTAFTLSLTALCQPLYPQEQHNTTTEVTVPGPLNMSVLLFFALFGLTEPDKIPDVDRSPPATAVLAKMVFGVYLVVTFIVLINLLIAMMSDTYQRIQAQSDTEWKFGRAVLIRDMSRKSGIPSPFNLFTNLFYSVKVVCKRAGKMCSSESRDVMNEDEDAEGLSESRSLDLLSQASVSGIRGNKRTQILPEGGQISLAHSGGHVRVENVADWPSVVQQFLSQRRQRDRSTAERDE
Chain of Nonstructural protein 1 (Q194T2 whole entry): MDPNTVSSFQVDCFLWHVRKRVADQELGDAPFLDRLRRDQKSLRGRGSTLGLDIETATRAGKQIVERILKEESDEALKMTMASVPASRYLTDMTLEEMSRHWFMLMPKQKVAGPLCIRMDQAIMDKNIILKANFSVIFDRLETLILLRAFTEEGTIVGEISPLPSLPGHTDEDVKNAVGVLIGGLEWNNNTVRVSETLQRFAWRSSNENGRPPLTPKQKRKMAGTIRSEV
Chain of Alkaline phosphatase, placental type (P05187 whole entry): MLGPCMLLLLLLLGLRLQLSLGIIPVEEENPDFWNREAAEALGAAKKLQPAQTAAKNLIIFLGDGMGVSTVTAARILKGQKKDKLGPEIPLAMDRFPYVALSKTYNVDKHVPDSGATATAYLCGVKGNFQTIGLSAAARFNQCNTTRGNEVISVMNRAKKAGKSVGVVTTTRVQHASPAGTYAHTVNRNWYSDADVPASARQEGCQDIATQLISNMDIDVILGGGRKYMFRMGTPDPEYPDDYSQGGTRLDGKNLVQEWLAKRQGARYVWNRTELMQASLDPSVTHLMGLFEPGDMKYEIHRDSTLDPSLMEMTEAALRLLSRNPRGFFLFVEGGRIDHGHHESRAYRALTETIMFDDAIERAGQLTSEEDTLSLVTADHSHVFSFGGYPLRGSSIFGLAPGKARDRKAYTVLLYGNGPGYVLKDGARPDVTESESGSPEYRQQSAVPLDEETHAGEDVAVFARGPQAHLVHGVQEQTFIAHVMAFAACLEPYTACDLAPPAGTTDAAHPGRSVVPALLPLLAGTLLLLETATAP
Chain of Polyadenylate-binding protein 1 (P11940 whole entry): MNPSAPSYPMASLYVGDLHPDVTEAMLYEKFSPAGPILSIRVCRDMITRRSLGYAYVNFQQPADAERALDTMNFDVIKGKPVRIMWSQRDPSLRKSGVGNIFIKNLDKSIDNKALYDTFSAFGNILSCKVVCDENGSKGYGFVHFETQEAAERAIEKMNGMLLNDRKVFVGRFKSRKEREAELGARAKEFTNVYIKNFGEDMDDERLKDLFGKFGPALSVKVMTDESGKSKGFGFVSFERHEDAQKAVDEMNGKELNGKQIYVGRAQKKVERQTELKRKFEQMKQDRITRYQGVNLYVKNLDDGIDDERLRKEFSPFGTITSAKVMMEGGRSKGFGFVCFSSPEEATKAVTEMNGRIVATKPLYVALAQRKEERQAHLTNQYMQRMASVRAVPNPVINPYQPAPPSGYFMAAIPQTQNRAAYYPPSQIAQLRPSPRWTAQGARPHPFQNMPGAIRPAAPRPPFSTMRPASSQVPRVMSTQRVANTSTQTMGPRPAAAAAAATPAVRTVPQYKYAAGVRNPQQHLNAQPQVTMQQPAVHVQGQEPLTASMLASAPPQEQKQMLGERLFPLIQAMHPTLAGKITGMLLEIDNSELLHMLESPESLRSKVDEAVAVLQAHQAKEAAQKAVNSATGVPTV

CCCCN(CC)S(=O)(=O)c1ccc(C(=O)Nc2nnc(-c3cccs3)o2)cc1
EC50 [1]: 2.67 µM (active)
EC50 [2]: 5.48 µM (active)
CC50 [3]: 3.18 µM (active)
CC50 [4]: 9.5 µM (active)
IC50 (cells [5]): 4.66 µM (active)
CC50 [6]: 4.23 µM (active)
EC50 [7]: 1.22 µM (active)

Nc1cc(=O)[nH]c(=O)n1CC1CC1
AC50 (Cytochrome P450 3A4): 3.98 µM (inconclusive)

COc1ccc(C(C(=O)NC2CCCCC2)N(C(=O)CCl)c2ccc(OC)cc2)cc1 (stereo unspecified)
EC50 [8]: 0.721 µM (active)
AC50 [9]: 9.27 µM (active)
EC50 (BJ [10]): 1.15 µM (inconclusive)
EC50 (BJ [11]): 8.28 µM (inconclusive)
AC50 [12]: 14.8 µM (active)
EC50 (BJ [13]): 5.19 µM (active)
EC50 [14]: 0.959 µM (active)
IC50 [15]: > 80 µM (inactive)
EC50 [16]: 1.26 µM (active)
AC50 [17]: 5.56 µM (active)
AC50 [18]: > 70 µM (inactive)

COc1ccc(N=C(S)NCc2ccccc2)c(OC)c1
IC50 [15]: > 80 µM (inactive)

C[C@H]1[C@H](C)CC[C@]2(C(=O)O)CC[C@]3(C)C(=CCC4[C@@]5(C)C[C@@H](O)[C@H](O)[C@@](C)(CO)[C@@H]5CC[C@]43C)[C@H]12 (stereo partly specified)
AC50 (Cytochrome P450 3A4): 15.8 µM (inconclusive)

N#Cc1c(-c2ccc(Cl)cc2)cc(-c2cccs2)nc1SCC(=O)O
IC50 (SUMO-activating enzyme [19]): 8.73 µM (active)
IC50 [20]: > 67 µM (not active)
IC50 [21]: 39.7 µM (active)
IC50 [22]: 6.66 µM (active)
IC50 [23]: 10.7 µM (active)
IC50 (SUMO-activating enzyme [24]): > 100 µM (inactive)

CCCC(NCC(O)COc1ccc(-c2ccccc2)cc1)c1ccccc1 (stereo unspecified)
IC50 (Protein skinhead-1): > 100 µM (inactive)
CC50 [25]: 12.6 µM (active)
EC50 [2]: 17.6 µM (active)
CC50 [3]: 15.7 µM (active)
CC50 [4]: > 20 µM (active)
IC50 (cells [5]): 12 µM (active)
CC50 [6]: 12.7 µM (active)
EC50 [7]: 2.1 µM (active)

COc1ccc(C=C(C(C)=O)C(C)=O)cc1OC
IC50 [15]: > 80 µM (inactive)

O=C(O)c1cc2c(cc1Br)OCCCO2
EC50 (Mucolipin-3): > 29.9 µM (not active)
EC50 (Ion channel NompC): > 29.9 µM (inactive)

c1ccc(N2CCN(Cc3nc4ccccc4[nH]3)CC2)nc1
AC50 (Cytochrome P450 3A4): 25.1 µM (inconclusive)

O=C(N/N=C/c1cc(Cl)cc(Cl)c1O)c1ccncc1
EC50 (cells [26]): > 350 µM (not active)
EC50 (Mucolipin-3): 14.2 µM (not active)
EC50 (cells [27]): 259 µM (active)
EC50 (Ion channel NompC): 6.49 µM (active)
IC50 (Nonstructural protein 1): 5.57 µM (active)

Cc1cc(C)nc(SCC(=O)c2ccc(O)cc2)n1
IC50 [28]: > 100 µM (inactive)
IC50 [29]: > 100 µM (inactive)
